Source: US20250304609A1, “POLYMORPHIC FORM OF CHALCONE GLYCOSIDE COMPOUND, AND PREPARATION METHOD AND APPLICATION THEREOF” (ZHEJIANG YONGNING PHARMACEUTICAL CO., LTD., priority 2022, published 2025)

Columns and labels:
[1] = test system: cerebral ischemia-reperfusion rat models; assay: Cerebral ischemia-reperfusion (MCAO) rat model, different doses of YN17; type: in vivo, rats
Protocol: Establishment of cerebral ischemia-reperfusion rat models. Rats were anesthetized with pentobarbital sodium (45 mg/kg), the neck skin was prepared, the surgical skin was disinfected with iodophor, the neck skin was cut in the middle, the neck muscles were separated, and the left common carotid artery (CCA) was separated until the branches of the internal carotid artery (ICA) and external carotid artery (ECA) were exposed. The proximal end of the common carotid artery was ligated, the distal end of the common carotid artery was clamped with an artery clip, an incision was made between the two ligated ends of the common carotid artery, the MCAO suture was inserted, and the suture was loosely ligated to the common carotid artery. The MCAO suture was inserted into the internal carotid artery, so that the suture reached the branches of the internal carotid artery to the middle cerebral artery (MCA), blocking the blood supply of the MCA and causing ischemia, the MCAO suture was fixed, and the surgical incision was sutured. After 1 h of ischemia, the MCAO suture was withdrawn into the common carotid artery to restore blood supply to the middle cerebral artery.
Drug administration. After the surgery, the rats were immediately injected with YN17 (5 mg/kg, 10 mg/kg and 20 mg/kg) via the tail vein, while the positive control group was injected with 3 mg/kg of edaravone via the tail vein. The rats were euthanized under anesthesia 24 hours after drug administration.
Animal neurobehavioral assessment. 24 hours after administration, the activity of the rats after landing was observed, and the behavior disorders of the rats were scored. The scoring method was as follows: • 0 points: no loss of neurological function and normal activity; • 1 point: failure to fully extend the left forepaw on the opposite side of the lesion; • 2 points: failure of the paralyzed side to resist the thrust from the opposite side; • 3 points: circling to the left side when crawling (tail-chasing sign); • 4 points: falling to the paralyzed side when shaking or walking; and • 5 points: trance or loss of consciousness.
Determination of the extent of cerebral infarction. The rats were euthanized under anesthesia 24 hours after drug administration. The brain was removed and rinsed with normal saline at 4° C. The brain was frozen at −80° C. for 10 min, and coronal slices with a thickness of 2 mm were cut from posterior to anterior, incubated in a 1% TTC solution for 10 min at 37° C., and fixed with formalin overnight after staining. The photos of the brain slices were taken and saved. The area of each brain slice and the area of the infarcted area were measured by Image Pro software, and the percentage of the area of focuses of infarct to the total area was calculated.

H9c2 cells = assay: Survival rate of H9c2 cells after oxygen-glucose deprivation/reperfusion (OGD/R); type: cell-based; conditions: 20, 40 and 80 μg/ml
Protocol: (§1) Establishment of cellular oxygen-glucose deprivation/reperfusion (OGD/R) models. […] ischemia was simulated by incubation in a three-gas incubator (95% N2, 5% CO2) using sugar-free culture medium for 8-h culture, followed by transfer to a normal CO2 incubator for 12-h culture to simulate reperfusion.

H9c2 cardiomyocytes = assay: Flow cytometry (Annexin V-FITC) for cell apoptosis detection (OGD/R); type: cell-based; conditions: OGD/R + 80 μg/ml, 24 h pretreatment; control 7.9%, model 20.3%
Protocol: as §1
Hoechst 33342 staining method for cell apoptosis detection. H9c2 cardiomyocytes were inoculated into a 6-well plate at a density of 2×10^5 cells/well. When the cells were completely adhered to the wall and grew to an appropriate degree of confluence, the cells were divided into a control group, a YN17 80 μg/ml group, a model group, and an OGD/R+80 μg/ml group. In the blank group, 2 mL of a fresh culture medium was added to each well and cultured in a CO2 incubator. The same amount of sugar-free DMEM was added to each well in the model group. […] After the treatment of each group, staining was performed according to the instructions of the Hoechst 33342 staining solution, and the nucleus morphology and fluorescence intensity of each group were observed under a fluorescence microscope.
Flow cytometry for cell apoptosis detection. […] After the treatment of each group, staining was performed according to the instructions of the Annexin V-FITC cell apoptosis detection kit, and cell apoptosis was detected by a flow cytometer.

O=C(/C=C/c1ccc(O)cc1)C1=C(O)C([C@@H]2O[C@H](CO)[C@@H](O)[C@H](O)[C@H]2O)=C([O-])[C@@](O)([C@@H]2O[C@H](CO)[C@@H](O)[C@H](O)[C@H]2O)C1=O.[Ca+2].[OH-] [YN17, (S)-3,6-dihydroxy-4-((E)-3-(4-hydroxyphenyl)acryloyl)-5-oxo-6-((2R,3R,4S,5S,6R)-3,4,5-trihydroxy-6-(hydroxymethyl)tetrahydro-2H-pyran-2-yl)-2-((2S,3R,4R,5S,6R)-3,4,5-trihydroxy-6-(hydroxymethyl)tetrahydro-2H-pyran-2-yl)cyclohexyl-1,3-diene-1-hydroxycalcium]
Symptom score ([1]; 5 mg/kg tail vein, 24 h after administration, 0-5 points, Mean ± SD, model 3.3 ± 0.7): 2.8 ± 1.0 | content of GSH-px in serum ([1]; 5 mg/kg, 10 mg/kg and 20 mg/kg, 24 h after modeling, p<0.001): significantly increase | content of SOD in serum ([1]; 10 mg/kg and 20 mg/kg, 24 h after modeling, p<0.001): significantly increase | survival rate of cells (H9c2 cells): can improve the survival rate of cells in different degrees | apoptosis rate (H9c2 cardiomyocytes): 13.3%
